Source: US20050148634A1, “1-N-Aminobenzimidazole derivatives” (ZERIA PHARMACEUTICAL CO., LTD, priority 2002, published 2005)
pIC50: −log10 of the molar value.

How the values were obtained:
[1] = system: histamine-stimulated gastric acid secretion; experiment: Test 2 gastric acid secretion inhibitory effect, acute fistula method; format: in vivo, Sprague-Dawley (SD) rats; conditions: male SD rats, administered into the duodenum, total gastric acid secreted on 3rd-5th hours, Probit method; for ED50: Rattus norvegicus
Protocol: Test 2 (Gastric Acid Secretion Inhibitory Effect)
(1) As laboratory animals, seven-week old male Sprague-Dawley (SD) rats were purchased from CHARLES RIVER JAPAN, INC. Subsequent to preliminary rearing for 5 days or longer, they were used in an experiment.
Each test medicine was suspended or dissolved in a 0.5% carboxymethylcellulose sodium solution to prepare a volume of 2.5 mL/kg.
(2) Measurement of Gastric Acid Secretion
Using rats fasted for 18 hours, histamine-stimulated gastric acid secretion in an acute fistula method following the method reported by Hiramatsu et al. (Dig. Dis. Sci., 39, 689-697 (1994)) was measured. Described specifically, each rat was lightly anesthetized with diethyl ether. After that, a winged tube needle with 3.8% citric acid solution filled therein was caused to dwell in the caudal vein. Celiotomy was performed, and the pyloric part of the stomach was ligated. A small hole was then formed in the duodenum, and a feeding tube with physiological saline filled therein was caused to dwell there. After the interior of the stomach was washed with physiological saline, a polyethylene-made fistula tube (inner diameter: 4 mm) was fitted to the proventriculus part and an incised part of the proventriculus was ligated to hold the fistula tube in place. The stomach and duodenum were returned into the abdominal cavity. Celiotomy was performed with the fistula tube and feeding tube being left extending outside, and the rat was placed in a Ballman Cage Type II. Histamine was continuously injected through the winged needle allowed to dwell in the caudal vein (8 mg/kg/h, 1.38 mL/h). Fifteen minutes later, the gastric juice was sampled, and after that, the gastric juice was sampled at intervals of 1 hour. After the amount of each gastric juice sample was recorded, it was titrated with 0.1 mol/L NaOH to a final point of pH 7.0. From the volume required for the titration, the acidity was calculated. The quantity of the secreted gastric acid was determined from the product of the amount of the gastric juice and the acidity. Incidentally, the rats were divided into groups such that the total amount of the first gastric juice samples became equal in each group. Each test medicine was administered in a volume of 2.5 mL/kg into the duodenum through the feeding tube fitted beforehand in the duodenum. To a control group, 0.5% Na—CMC solution was administered.
(3) Analysis of the Results
From the results so obtained, data were presented in terms of average ±S.D. The sum of quantities of gastric acid secreted on the 3rd, 4th and 5th hours after the first sampling was recorded as a total quantity of secreted gastric acid. The percent inhibition in each group was calculated from the total quantity of secreted gastric acid in the control group and the total quantity of secreted gastric acid in the group. From the percent inhibition in each group, the 50% effective dose (ED50) was next calculated by the Probit method.

human CYP2C19 = molecular target: T1, human CYP2C19 (Homo sapiens, UniProt P33261); experiment: Test 3 human CYP2C19 activity inhibition test (S-(+)-mephenyloin to 4'-hydroxymephenyloin); format: in vitro ADME; conditions: test compound 10 μM, microsomes from human CYP2C19 expression system, formed 4'-hydroxymephenyloin compared with control
T1 construct: purchased Sumitomo Chemical Co., Ltd
Protocol: Test 3 (Human CPY2C19 Activity Inhibition Test)
CYP2C19 specifically induces the metabolic reaction of from S-(+)-mephenyloin into 4′-hydroxymephenyloin. Using the CYP2C19 expression system, the inhibitory effect of each test substance was investigated based on the amount (concentration) of formed 4′-hydroxymephenylion as an index of CYP2C19 activity.
a) Metabolic Activity Test
As a reaction mixture, a 125 μmol/L solution of S-(+)-mephenyloin in methanol (50 μL) and a 25 μmol/L solution of each test substance in methanol (0, 10, 100 or 200 μL) were added to 10-mL test tube made of glass, and the solvent was distilled off under a nitrogen gas stream (40° C.).
After incubated at 37° C. for 10 minutes, a 12% aqueous solution of perchloric acid (50 μL) was added to terminate the reaction.
Subsequent to the termination of the reaction, 10 μg/mL methyl p-hydroxybenzoate (50 μL) as an internal standard (I.S.) and diethyl ether (2 mL) were added. The resulting mixture was shaken for 10 minutes, and then centrifuged (3,000 rpm, 10 minutes). The organic layer was separately collected, and under a nitrogen gas stream (40° C.), the solvent was distilled off. The residue was dissolved in a mobile phase (200 μL), and an analysis was conducted by high performance liquid chromatography (HPLC).
Using a solution of 4′-hydroxymephenyloin in lieu of the S-(+)-mephenyloin solution, a calibration line was prepared following the above-described reaction method. Quantitation was conducted based on a peak area ratio of 4′-hydroxymephenyloin to the I.S. Comparing the formed amount of 4′-hydroxymephenyloin as a control with that of 4′-hydroxymephenyloin at the time of the existence of the test compound, the comparison result was used as an index of activity.
HPLC was conducted under the following HPLC conditions A or HPLC conditions B. […]

H+/K+-ATPase = molecular target: T2, H+/K+-ATPase (Sus scrofa, UniProt P19156); experiment: Test 1 proton pump inhibitory effect: H+/K+-ATPase enzyme inhibiting activity at pH 1; format: biochemical; conditions: swine stomach enzyme sample; test compound pretreated in pH 1 hydrochloric acid solution with 50% DMSO for 15 minutes; ATP substrate
T2 construct: An interface fraction obtained by the centrifugation was collected; from tissue; host or cells: swine stomach mucosal layer, membrane fraction from the sucrose interface
Protocol: Test 1 (Proton Pump Inhibitory Effect)
(1) Preparation of H^+/K^+-ATPase Enzyme Sample
A swine stomach which had been stored frozen was separated into a muscularis and a mucosal layer. After the mucosal layer was disrupted with a mixer in 5 volumes of 20 mmol/L tris-HCl buffer containing 0.25 mol/L of sucrose and 1 mmol/L of EGTA (pH 7.4, hereafter abbreviated as “tris-HCl buffer”), centrifugation was conducted at 9,000×g for 30 minutes. The supernatant was gently overlaid on 20 mmol/L tris-HCl buffer containing 30% of sucrose and 1 mmol/L of EGTA (pH 7.4, 8 mL), followed by ultracentrifugation at 100,000×g for 60 minutes. An interface fraction obtained by the centrifugation was collected and subjected to centrifugation twice under 113,000×g for 60 minutes. The sediment was suspended with tris-HCl buffer, and the suspension was homogenized at low rotational speed to provide an enzyme sample. The enzyme sample was stored frozen at −80° C. Using the method reported by Smith et al. (Anal. Biochem., 150, 76-85 (1985)), the thus-obtained sample was quantitatively analyzed for its protein content with a BCA protein assay reagent. The above procedure was all conducted under water cooling.
(2) Discussion about H+/K^+-ATPase Enzyme Inhibiting Activity at pH 1
Following a method making use of a method for the quantitation of inorganic phosphorus as a degradation product (Biochem. Biophys. Res. Commun., 40, 880-886 (1970)), an assay of H^+/K^+-ATPase enzyme inhibiting activity was performed by using ATP as a substrate. As a hydrochloric acid solution for the pretreatment of each test compound, a 1×10^−1 mol/L (pH 1) solution of hydrochloric acid with 50% DMSO contained therein was used. Solutions of each test compound at various concentrations were added to aliquots of the hydrochloric acid solution such that the solutions were diluted 1,000-fold, and the thus-diluted solutions were left over at room temperature for 15 minutes. […] 840-μL Aliquots of an enzyme solution (5 μg proteins) diluted with the TE buffer were then added. After incubated at 37° C. for 30 minutes, 50-μL aliquots of 40 mmol/LATP solution (dissolved in the TE buffer free of KCl) were added to initiate an enzymatic reaction (total volume: 1 mL, final ATP concentration: 2 mmol/L). Subsequent to incubation at 37° C. for 30 minutes, 2-mL aliquots of ice-cold 12% trichloroacetic acid were added to terminate the enzymatic reaction. A molybdenum reagent (1 mL; 3.75% ammonium molybdate/1.5 mol/L sulfuric acid) and butyl acetate (5 mL) were added. After vigorous shaking and mixing for 5 minutes, the absorbance of a butyl acetate layer was measured at 310 nm. From absorbances obtained by dissolving KH2PO4 solutions of various concentrations in aliquots of an 8% TCA solution and performing a similar procedure, a standard curve was prepared to perform a conversion of each quantity of inorganic phosphorus. The assay was conducted in duplicate. From a difference between an average quantity of inorganic phosphorus in the case of the KCl-containing TE buffer and an average quantity of inorganic phosphorus in the case of the KCl-free TE buffer, a residual activity was determined. Supposing that the activity of the control value (DMSO) was 100%, the percent inhibition of the compound was calculated. As the inhibition potency of each test compound, an IC50 value was calculated and presented. The test compounds were al used by dissolving them in dimethyl sulfoxide immediately before their use.

T1 sequence (P33261 whole entry): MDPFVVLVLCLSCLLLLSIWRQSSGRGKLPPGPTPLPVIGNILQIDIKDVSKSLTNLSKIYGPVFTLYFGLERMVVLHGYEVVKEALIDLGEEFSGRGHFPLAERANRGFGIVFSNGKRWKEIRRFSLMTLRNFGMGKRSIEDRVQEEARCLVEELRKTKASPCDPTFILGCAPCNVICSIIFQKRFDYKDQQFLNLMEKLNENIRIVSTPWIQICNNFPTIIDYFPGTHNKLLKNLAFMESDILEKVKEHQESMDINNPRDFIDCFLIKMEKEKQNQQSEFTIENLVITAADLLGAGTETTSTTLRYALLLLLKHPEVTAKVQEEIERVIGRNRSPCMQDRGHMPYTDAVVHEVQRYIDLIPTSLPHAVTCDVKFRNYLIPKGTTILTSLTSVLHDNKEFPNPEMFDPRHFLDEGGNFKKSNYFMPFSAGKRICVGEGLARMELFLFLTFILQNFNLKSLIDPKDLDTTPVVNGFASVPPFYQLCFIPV
T2 sequence (P19156 2-1034 limits assumed): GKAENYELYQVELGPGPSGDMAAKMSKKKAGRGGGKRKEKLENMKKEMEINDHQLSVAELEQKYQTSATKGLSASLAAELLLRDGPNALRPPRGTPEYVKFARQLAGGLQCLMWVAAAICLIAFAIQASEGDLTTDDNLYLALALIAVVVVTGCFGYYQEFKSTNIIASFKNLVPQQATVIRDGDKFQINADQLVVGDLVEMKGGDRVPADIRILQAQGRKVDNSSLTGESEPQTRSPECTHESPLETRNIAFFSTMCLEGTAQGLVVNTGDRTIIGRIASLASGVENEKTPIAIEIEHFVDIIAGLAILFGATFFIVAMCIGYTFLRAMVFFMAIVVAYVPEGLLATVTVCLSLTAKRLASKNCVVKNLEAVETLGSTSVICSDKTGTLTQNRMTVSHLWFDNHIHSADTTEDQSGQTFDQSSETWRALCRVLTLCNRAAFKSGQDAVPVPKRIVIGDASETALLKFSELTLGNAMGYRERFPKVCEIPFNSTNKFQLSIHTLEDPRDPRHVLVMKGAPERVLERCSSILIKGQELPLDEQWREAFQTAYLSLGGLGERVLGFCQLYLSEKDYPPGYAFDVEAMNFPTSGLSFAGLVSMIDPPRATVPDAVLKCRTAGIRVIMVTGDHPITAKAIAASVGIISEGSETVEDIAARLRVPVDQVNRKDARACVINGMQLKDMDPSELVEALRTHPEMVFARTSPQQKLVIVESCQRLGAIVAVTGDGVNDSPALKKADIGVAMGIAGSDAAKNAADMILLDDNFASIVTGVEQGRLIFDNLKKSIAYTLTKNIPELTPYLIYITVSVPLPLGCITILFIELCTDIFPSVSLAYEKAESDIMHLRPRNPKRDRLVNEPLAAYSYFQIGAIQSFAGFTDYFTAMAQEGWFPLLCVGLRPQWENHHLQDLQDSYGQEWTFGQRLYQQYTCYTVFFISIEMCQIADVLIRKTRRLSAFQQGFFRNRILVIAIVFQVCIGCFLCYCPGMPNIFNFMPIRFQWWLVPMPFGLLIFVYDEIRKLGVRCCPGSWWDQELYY
T2 sequence (P18434 whole entry partner): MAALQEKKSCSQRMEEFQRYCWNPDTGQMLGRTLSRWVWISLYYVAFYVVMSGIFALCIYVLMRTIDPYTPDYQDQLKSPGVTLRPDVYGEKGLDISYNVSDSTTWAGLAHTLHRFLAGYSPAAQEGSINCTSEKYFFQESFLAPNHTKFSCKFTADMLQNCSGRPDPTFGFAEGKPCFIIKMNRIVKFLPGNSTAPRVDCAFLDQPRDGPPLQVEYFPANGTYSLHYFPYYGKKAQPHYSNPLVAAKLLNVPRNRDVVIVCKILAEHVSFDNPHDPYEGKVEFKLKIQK

## Cc1c(OCCCC(F)(F)F)ccnc1C[S+]([O-])c1nc2ccccc2n1N (racemic) [Example 25]
[1]
  Gastric acid secretion inhibitory effect ED50: 1.1 mg/kg

## Cc1c(OCC(F)(F)F)ccnc1C[S+]([O-])c1nc2ccccc2n1NCC(C)O (mixture of isomers) [Example 55]
[1]
  Gastric acid secretion inhibitory effect ED50: 3.6 mg/kg
Human CYP2C19
  CYP2C19 activity inhibition (%): 63.8%

## COc1c(OCC(F)(F)F)ccnc1C[S+]([O-])c1nc2ccccc2n1NCCCO (racemic) [Example 59]
Human CYP2C19
  CYP2C19 activity inhibition (%): 61.7%

## Cc1c(OCCOCC(F)(F)F)ccnc1C[S+]([O-])c1nc2ccccc2n1NCCCO (racemic) [Example 60]
Human CYP2C19
  CYP2C19 activity inhibition (%): 71.4%

## COCCCOc1ccnc(C[S+]([O-])c2nc3ccccc3n2N)c1C (racemic) [Example 21]
Human CYP2C19
  CYP2C19 activity inhibition (%): 78.6%

## COc1ccnc(C[S+]([O-])c2nc3ccc(OC(F)F)cc3[nH]2)c1OC (centres unmarked) [Pantoprazole, pantoprazole, reference compound]
[1]
  ED50: 0.34 mg/kg
Human CYP2C19
  CYP2C19 activity inhibition (%): 33.1%

## Cc1c(OCC(F)(F)F)ccnc1C[S+]([O-])c1nc2ccccc2n1NCCN(C)C (racemic) [Example 48]
Human CYP2C19
  CYP2C19 activity inhibition (%): 72.3%

## Cc1c(OCC(F)(F)F)ccnc1C[S+]([O-])c1nc2ccccc2n1NCCc1ccccc1 (racemic) [Example 50]
H+/K+-ATPase
  pIC50: 6.06

## COc1ccc2[nH]c([S+]([O-])Cc3ncc(C)c(OC)c3C)nc2c1 (centres unmarked) [Omeprazole, omeprazole, reference compound]
[1]
  ED50: 3.6 mg/kg
Human CYP2C19
  CYP2C19 activity inhibition (%): 18.4%

## COCCCOc1ccnc(C[S+]([O-])c2nc3ccccc3n2NCCCO)c1C (single isomer, unassigned; (+)) [(+) Isomer of Example 57]
Human CYP2C19; 10 µM
  CYP2C19 activity inhibition (%): 67.4%

## COc1c(OCCCC(F)(F)F)ccnc1C[S+]([O-])c1nc2ccccc2n1N (racemic) [Example 26]
[1]
  Gastric acid secretion inhibitory effect ED50: 2.6 mg/kg
Human CYP2C19
  CYP2C19 activity inhibition (%): 73.2%

## COc1ccc2nc([S@@+]([O-])Cc3ncc(C)c(OC)c3C)[nH]c2c1 [Esomeprazole, esomeprazole, reference compound]
[1]
  ED50: 2.9 mg/kg
Human CYP2C19
  CYP2C19 activity inhibition (%): 35.4%

## Cc1c(OCC(F)(F)F)ccnc1C[S+]([O-])c1nc2ccccc2n1NCCCO (racemic) [Example 36]
Human CYP2C19; listed as Racemic mixture of Example 36, 10 µM
  CYP2C19 activity inhibition (%): 61.7%

## COCCCOc1ccnc(C[S+]([O-])c2nc3ccccc3n2NCCCO)c1C (racemic) [Example 57]
Human CYP2C19; listed as Racemic mixture of Example 57, 10 µM
  CYP2C19 activity inhibition (%): 73%

## COCCCOc1ccnc(C[S+]([O-])c2nc3ccccc3n2NCCCO)c1C (single isomer, unassigned; (-)) [(−) Isomer of Example 57]
Human CYP2C19; 10 µM
  CYP2C19 activity inhibition (%): 77.6%

## Cc1c(OCCOCC(F)(F)F)ccnc1C[S+]([O-])c1nc2ccccc2n1N (racemic) [Example 23]
Human CYP2C19
  CYP2C19 activity inhibition (%): 75.6%

## Cc1c(OCCCOCC(F)(F)F)ccnc1C[S+]([O-])c1nc2ccccc2n1NCCCO (racemic) [Example 62]
Human CYP2C19
  CYP2C19 activity inhibition (%): 95.3%

## Cc1c(OCC(F)(F)F)ccnc1C[S+]([O-])c1nc2ccccc2[nH]1 (centres unmarked) [Lansoprazole, lansoprazole, reference compound]
[1]
  ED50: 1.1 mg/kg
Human CYP2C19
  CYP2C19 activity inhibition (%): 8.7%

## COCCCOc1ccnc(C[S+]([O-])c2nc3ccccc3[nH]2)c1C (centres unmarked) [Rabeprazole, rabeprazole, reference compound]
[1]
  ED50: 2.5 mg/kg
Human CYP2C19
  CYP2C19 activity inhibition (%): 39.8%

## COCCCOc1ccnc(C[S+]([O-])c2nc3ccccc3n2NCC(C)O)c1C (mixture of isomers) [Example 63]
Human CYP2C19
  CYP2C19 activity inhibition (%): 72.1%

## Cc1c(OCC(F)(F)F)ccnc1C[S+]([O-])c1nc2ccccc2n1NCCCO (single isomer, unassigned; (+)) [(+) Isomer of Example 36]
[1]
  Gastric acid secretion inhibitory effect ED50: 1.1 mg/kg
Human CYP2C19; 10 µM
  CYP2C19 activity inhibition (%): 70.6%

## COc1c(OCCOCC(F)(F)F)ccnc1C[S+]([O-])c1nc2ccccc2n1N (racemic) [Example 24]
Human CYP2C19
  CYP2C19 activity inhibition (%): 81.9%

## COc1c(OCCOCC(F)(F)F)ccnc1C[S+]([O-])c1nc2ccccc2n1NCCCO (racemic) [Example 61]
Human CYP2C19
  CYP2C19 activity inhibition (%): 64.8%

## COCCOc1ccnc(C[S+]([O-])c2nc3ccccc3n2NCCCO)c1C (racemic) [Example 58]
Human CYP2C19
  CYP2C19 activity inhibition (%): 67.3%
